Results taken from PubChem BioAssay AID1645864 (Buhrlage Lab, Dana-Farber Cancer Institute and Novartis …, 2021).
Active and inactive are the calls of the source.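 The calls were made as follows: active = maximal inhibition of USP17 at or above 30% in the confirmation dose-response, a value not among the printed readouts; inactive = the rest.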

Each molecule was assayed against Ubiquitin carboxyl-terminal hydrolase 17-like protein 5 (Homo sapiens) (UniProt A8MUK1) (assay: ubiquitin-specific protease 17 inhibitors, concentration series, biochemical, verification of primary actives (AID 1645864)). Settings: purified USP17, ubiquitin-rhodamine cleavage fluorescence, 3 h.
Ubiquitin carboxyl-terminal hydrolase 17-like protein 5 (Homo sapiens), sequence (A8MUK1 whole entry, looked up): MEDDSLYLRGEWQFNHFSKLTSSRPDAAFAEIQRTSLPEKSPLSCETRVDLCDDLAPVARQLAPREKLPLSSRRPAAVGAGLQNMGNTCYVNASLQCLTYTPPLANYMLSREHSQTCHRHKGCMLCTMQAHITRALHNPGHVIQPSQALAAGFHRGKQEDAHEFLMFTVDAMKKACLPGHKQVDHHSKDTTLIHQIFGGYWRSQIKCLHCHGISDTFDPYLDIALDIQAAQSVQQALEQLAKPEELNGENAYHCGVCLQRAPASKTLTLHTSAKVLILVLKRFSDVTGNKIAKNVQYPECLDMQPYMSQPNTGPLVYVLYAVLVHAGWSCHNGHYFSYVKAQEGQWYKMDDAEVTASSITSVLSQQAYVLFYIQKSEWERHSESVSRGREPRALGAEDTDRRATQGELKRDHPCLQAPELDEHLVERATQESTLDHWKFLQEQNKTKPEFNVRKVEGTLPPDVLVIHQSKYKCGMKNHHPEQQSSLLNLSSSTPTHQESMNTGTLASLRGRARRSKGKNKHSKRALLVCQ

SMILES | IC50
COc1ccc(NC(=O)c2nnn(-c3ccccc3C)c2C)cc1OC | > 50 µM (inactive)
Cc1c(CC(=O)Nc2nn[nH]n2)c(=O)oc2cc3c(cc12)CCC1(CCCCC1)O3 | > 50 µM (inactive)
CCN(C(=O)c1cc2c(Cl)nc3ccccc3c2s1)c1ccccc1F | 16.1 µM
CC(C)CCCCCCCCCCC(=O)N(C)[C@H](CO)C(=O)N[C@H](C)C(=O)NCC(=O)N(C)C1C(=O)N[C@@H](C)C(=O)NC(C(=O)O)Cc2ccc(O)c(c2)-c2cc1ccc2O (stereo partly drawn) | > 50 µM (inactive)
CCCCCC(=O)N1c2ccccc2NC2=C(C(=O)CC(c3ccc(C(C)(C)C)cc3)C2)C1c1ccncc1 (stereo not drawn) | 4.7 µM
O=C(CNC(=O)OCc1ccccc1)Nc1ccc(Br)cc1C(=O)c1ccccc1Cl | 9.66 µM
CCOc1ccccc1NC(=O)Cn1c(=O)n(CCCC(=O)NCc2ccc(C)cc2)c(=O)c2sccc21 | 2.71 µM
Cc1cc(C)n(-c2ccc(C(=O)Nc3cccc(S(=O)(=O)N4CCCC4)c3)cc2)n1 | 23 µM
COc1cccc(CC(=O)Nc2cc(F)c3nc(N4CCOCC4)ccc3c2)c1 | > 50 µM (inactive)
Cc1nnc(-c2nnc(NCc3ccc(Cl)cc3)c3ccccc23)o1 | > 50 µM (inactive)
Cc1nc2cc(NC(=O)C3CN(C(=O)c4cnccn4)C3)ccc2s1 | > 50 µM (inactive)
CCCNc1cc(-c2ccccc2)nc2nc(-c3cccnc3)nn12 | > 50 µM (inactive)
CNC(=O)c1cc2nc(N(C)C)n(-c3ccccc3)c2s1 | > 50 µM (inactive)
Cn1ncc2c(=O)n(Cc3cccc(Cl)c3)cnc21 | > 50 µM (inactive)
O=C(c1cc(-c2ccncc2)n[nH]1)N1CCC(C(=O)N2CC=C(c3ccccc3)CC2)CC1 | 28.1 µM
Cc1ccc(Nc2nc(O)c(CC(=O)Nc3ccccc3C)s2)cc1C | 18 µM
Cc1cnc2nc3c(cc2c1)CN(S(=O)(=O)c1cc(F)ccc1C)CC3 | > 50 µM (inactive)
Cc1ccc(CNC(=O)c2cccc(N3C(=O)N4CCc5c([nH]c6ccccc56)[C@@]4(C)C3=O)c2)cc1 | 23.1 µM
O=C(CN1C(=O)COc2ccc(Cl)cc21)Nc1cccc2ncccc12 | > 50 µM (inactive)
Cc1ccc(C(=O)Nc2ccc3nccnc3c2)cc1 | > 50 µM (inactive)
COC1=CC(=O)c2c(O)c(C)c(CC(C)=O)c(O)c2C1=O | 2.87 µM
CCN1C(SCc2ccccc2F)=NS(=O)(=O)c2ccccc21 | > 50 µM (inactive)
Cc1cc(C(F)(F)F)n2nc(C3CCN(C(=O)c4cnn(C)c4C)C3)cc2n1 (stereo not drawn) | 30.2 µM
Cc1nc2ccc(NC(=O)COc3ccccc3[N+](=O)[O-])cc2s1 | 3.26 µM
O=C(COc1cccc(-n2cnnn2)c1)Nc1ccc2c(c1)OCCO2 | > 50 µM (inactive)

SMILES | IC50
CCC(=O)Nc1ccccc1-c1nc2ccccc2n(CC(=O)Nc2cc(OC)ccc2OC)c1=O | 18.6 µM
Cn1c(-c2nnc(SCC(=O)Nc3ccccc3F)o2)cc2ccccc21 | 21.3 µM
O=C(CSc1nnc(Cn2cnc3ccccc32)o1)Nc1ccc([N+](=O)[O-])cc1 | 21.1 µM
Cc1c2c(nc3ccccc13)-c1ccccc1CC2 | > 50 µM (inactive)
CCc1ccc2[nH]c3c(c(=O)c2c1)CN(CC(=O)NCc1ccc2c(c1)OCO2)CC3 | 28.1 µM
O=C(CCc1ccc(S(=O)(=O)N2CCOCC2)cc1)Nc1ccc2c(c1)OCCO2 | > 50 µM (inactive)
O=C(Cn1c(=O)n(Cc2ccc3c(c2)OCO3)c(=O)c2ncccc21)c1ccccc1 | 46.8 µM
COc1ccc(OC)c(-n2c(SCC(=O)N3CCc4ccccc43)nnc2-c2cccc(S(=O)(=O)N(C)C)c2)c1 | 3.51 µM
COc1cccc(NC(=O)Cc2sc(Nc3cc(C)cc(C)c3)nc2O)c1 | 17.8 µM
N#Cc1ccc(NC(=O)Nc2cccn(Cc3c(F)cccc3Cl)c2=O)cc1 | 3.86 µM
CCC(=O)N1c2ccccc2NC2=C(C(=O)CC(c3ccccc3OCc3ccccc3)C2)C1c1ccccc1 (stereo not drawn) | 4.4 µM
CC(C)Oc1ccc(C(=O)Nc2cccc(S(=O)(=O)N3CCCC3)c2)cc1 | > 50 µM (inactive)
CCn1c(=O)c2ccccc2n(Cc2nc(-c3ccccc3OC)no2)c1=O | > 50 µM (inactive)
Cc1noc(-c2cccn(Cc3cccc(C(F)(F)F)c3)c2=O)n1 | > 50 µM (inactive)
O=c1[nH]c(C2CCN(S(=O)(=O)c3ccc(S(=O)(=O)NC4CCCCC4)cc3)CC2)nc2c1nnn2Cc1c(F)cccc1Cl | 22.1 µM
Cc1c(C)n(-c2ccccc2)c2ncn(CC(=O)NC(C)c3ccccc3)c(=O)c12 (stereo not drawn) | 22.5 µM
COc1ccccc1Nc1ncc(C(=O)NCCc2ccc(Cl)cc2)c2ccccc12 | 4.16 µM
O=C(COc1ccc(Cl)cc1Cl)Nc1ccccc1-c1nc2ccccc2[nH]1 | 2.12 µM
Cc1ccc2c(C)nc(Nc3ncc4c(n3)CC(c3ccco3)CC4=O)nc2c1 (stereo not drawn) | < 0.05 µM
CCOC(=O)c1ccc(NC(=O)Cn2c(=O)n(CC(=O)NCc3ccco3)c(=O)c3ccccc32)cc1 | 2.89 µM
CSc1ncc(C(=O)NC(C)c2ccccc2)c(-c2ccccc2)n1 (stereo not drawn) | 20.5 µM
Cc1cccc(-n2cnc(C(=O)NCc3ccc(F)cc3)c2)n1 | 22.8 µM
O=C(COc1ccc2ccccc2c1)Nc1cccc2ccccc12 | 15.8 µM
Cc1ccc(NC(=O)/C=C/c2cccc(C(F)(F)F)c2)c(O)c1 | 8.3 µM
CC(=O)c1cccc(NC(=O)c2ccc3[nH]c4c(c3c2)CC(C)CC4)c1 (stereo not drawn) | > 50 µM (inactive)

SMILES | IC50
CC1(C)Cc2nc3sc4c(=O)n(CC(=O)NCc5ccccc5)cnc4c3cc2CO1 | 44.9 µM
COCC(=O)Nc1cc(F)c2nc(N3CCOCC3)ccc2c1 | 33.8 µM
O=C(Cn1cncc(-c2nc(-c3ccccc3)cs2)c1=O)NC1CCCC1 | 39.5 µM
CC(=O)c1ccc(NC(=O)C[n+]2cc(-c3ccc(Cl)cc3)n3c2CCC3)cc1 | 32.1 µM
CC(=O)C1=C(O)[C@]2(O)C(=O)c3c(c(C)c4ccc(C)c(O)c4c3O)C[C@H]2[C@@H](N)C1=O | 1.14 µM
COC(=O)CC1CC23OC2(C(=O)c2c(O)cccc2C3=O)C(C)O1 (stereo not drawn) | 0.161 µM
CCc1c(C)c(C#N)c2nc3ccccc3n2c1N1CCN(C2CCCC2)CC1 | 3.06 µM
COc1cc(Cl)ccc1Oc1ncnc2sc(C)c(C)c12 | > 50 µM (inactive)
O=C(NC1CC1)c1ccnn1-c1ccc2ccc(-c3ccncc3)cn12 | > 50 µM (inactive)
N#Cc1cccc(NC(=O)Nc2cccn(Cc3ccccc3F)c2=O)c1 | 21 µM
N#Cc1ccccc1OCc1csc(-c2ccccc2)n1 | > 50 µM (inactive)
CCn1cnc2ccc(C(=O)NC3CC3)cc2c1=O | > 50 µM (inactive)
CCOc1ccc(-c2noc(-c3nn(-c4cccc(OC)c4)ccc3=O)n2)cc1 | 10 µM
COc1ccc(NC2c3ccccc3C(=O)N2c2ccccn2)cc1 (stereo not drawn) | > 50 µM (inactive)
COc1ccc(-c2cc(-c3ccccc3)nc(SCC(N)=O)c2C#N)cc1OC | 1.61 µM
CC(C)N(C(=O)Cn1c(=O)[nH]c2ccccc21)c1ccccc1 | > 50 µM (inactive)
NC(=O)CCC(=O)N[C@H]1C[C@H]2CN(Cc3ccccc3)c3ccccc3CN2C1 | > 50 µM (inactive)
O=C(Oc1ccc(-c2cnc3ccccc3n2)cc1)c1ccc(F)cc1 | 6.4 µM
Cn1nc(-c2nc(-c3ccccc3)no2)c2c1CCN(C(=O)C1CC1)C2 | > 50 µM (inactive)
O=C(COc1cc([N+](=O)[O-])cc2cccnc12)NCCC1=CCCCC1 | 23.5 µM
Cc1ccc(NC(=O)c2nnn(-c3ccccc3Br)c2C)cc1C | > 50 µM (inactive)
CC(OC(=O)CNC(=O)c1ccc(Br)cc1)C(=O)Nc1ccc2c(c1)OCCO2 (stereo not drawn) | 30.4 µM
Cc1cc(C)cc(NC(=O)CSc2ccc(-c3ccncc3)nn2)c1 | > 50 µM (inactive)
O=C(c1cc2ccccc2o1)N1CC=C(c2ccccc2)CC1 | > 50 µM (inactive)
COc1c(C)c(C(O)C(C)O)c2[nH]c3ccc(CC=C(C)C)cc3c2c1O (stereo not drawn) | 17.1 µM

SMILES | IC50
O=C(NCCc1ccccn1)c1cc(-c2ccc(Br)cc2)n[nH]1 | 17.9 µM
COc1ccc(NC(=O)C2CC(=O)Nc3cc(-c4ccccc4)nn32)cc1 (stereo not drawn) | 22.9 µM
COc1ccc(CCNC(=O)c2cc(C3CC3)nc3c2cnn3C(C)C)cc1 | > 50 µM (inactive)
COc1cccc2cc(C(=O)Nc3nc(-c4ccncc4)cs3)oc12 | 0.17 µM
O=c1[nH]cccc1NS(=O)(=O)c1ccc(F)cc1 | > 50 µM (inactive)
COc1c(Cl)ccc2c(=O)c3c(O)c4c5c(c3oc12)OCO[C@H]5[C@@H](OC)c1cc2c(c(O)c1-4)C(=O)N(C)[C@H](OC)[C@@H]2O | > 50 µM (inactive)
CN=C(N)NCCC/C=C/CCCC(C)CC(C)C1OC(=O)/C=C/C(C)C(O)CC(O)C(C)C(O)CCC(C)C(O)CC2(O)OC(CC(OC(=O)CC(=O)O)CC(O)CC(O)C(C)C(O)/C=C/C1C)CC(O)C2O (stereo not drawn) | > 50 µM (inactive)
O=C(COC(=O)c1ccc(CN2CCCC2=O)cc1)c1ccc2c(c1)OCCO2 | > 50 µM (inactive)
CC1=C(C)C(c2c(-c3ccc(C)cc3)[nH]c3ccccc23)N(C(C)(C)C)C1=O (stereo not drawn) | 2.05 µM
COc1ccc(-c2nc(Cn3nnc(C(=O)Nc4ccc(C)c(C)c4)c3N)c(C)o2)cc1 | 2.24 µM
N[C@@H](Cc1ccccc1)C(=O)N1CCC2(CC1)CN(C(=O)c1ccc(Cl)cc1)CCO2 | > 50 µM (inactive)
O=C(/C=C/c1ccco1)c1cccc([N+](=O)[O-])c1 | 22.6 µM
CCOc1cc(N2CCOCC2)c(OCC)cc1NC(=O)c1cc(-c2ccncc2)nc2ccccc12 | 10.1 µM
COc1ccc(C)cc1NC(=O)C1CC(=O)Nc2nc(SCc3ccccc3)nn21 (stereo not drawn) | 18.9 µM
O=C(Cn1cnc2ccccc21)Nc1ccc2c(c1)CCC2 | 27.9 µM
O=C1c2ccccc2-n2c1nc1ccccc1c2=O | 4.91 µM
COc1cccc(NC(=O)c2ccc(-c3csc(C)n3)cc2)c1 | > 50 µM (inactive)
CCC[C@H]1O[C@@H]2CC(=O)O[C@@H]2C2=C1C(=O)c1c(O)cccc1C2=O | 1.08 µM
COc1ccc(OC)c(NC(=O)c2ccc(-n3nnnc3SC)cc2)c1 | 29.9 µM
Cc1ccc(NCc2cc3c(C(C)(C)C)nn(-c4ccc(Cl)cc4)c3[nH]c2=O)cc1 | 15.7 µM
O=C(CC1C(=O)N(Cc2ccccc2)c2nc3ccccc3n21)NCCc1ccccc1 (stereo not drawn) | 18.7 µM
CCCCN(C)C(=O)c1cc2c(=O)n3cccc(C)c3nc2n1Cc1ccccc1 | 39.8 µM
NS(=O)(=O)c1cc(C(=O)OCC(=O)c2ccc3c(c2)OCCO3)ccc1Cl | > 50 µM (inactive)
